Converted amounts (≈) assume the structure as drawn.
Columns and labels:
[1] = molecular target: T1, glucocerebrosidase (Gcase) (Homo sapiens, UniProt P04062); experiment: Glucocerebrosidase (Gcase) activation assay, 4-methylumbelliferyl-beta-D-glucopyranoside substrate, with saposin C; assay type: biochemical; conditions: for activation at 0.1 µM: test compound at 0.1 μM, read-out: Percent Gcase Activation, 0.1 μM Test Compound; for activation at 1 µM: test compound at 1.0 μM, read-out: Percent Gcase Activation, 1 μM Test Compound
T1 sequence (P04062 40-536): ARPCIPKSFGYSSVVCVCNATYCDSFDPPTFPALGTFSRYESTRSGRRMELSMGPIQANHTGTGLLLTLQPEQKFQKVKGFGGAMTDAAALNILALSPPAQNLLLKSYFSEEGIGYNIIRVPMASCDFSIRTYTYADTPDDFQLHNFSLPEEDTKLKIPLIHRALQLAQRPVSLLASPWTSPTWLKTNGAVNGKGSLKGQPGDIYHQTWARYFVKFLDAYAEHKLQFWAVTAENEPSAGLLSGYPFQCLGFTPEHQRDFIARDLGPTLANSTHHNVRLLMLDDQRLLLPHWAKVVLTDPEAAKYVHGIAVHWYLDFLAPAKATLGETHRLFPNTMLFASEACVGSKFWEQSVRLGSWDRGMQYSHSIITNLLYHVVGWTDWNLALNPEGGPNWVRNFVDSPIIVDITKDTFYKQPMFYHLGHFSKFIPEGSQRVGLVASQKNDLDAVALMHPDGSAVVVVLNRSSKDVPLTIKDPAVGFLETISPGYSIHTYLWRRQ
Outline: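 Compounds tested at 1.0 and 0.1 μM, then in 8-point 3-fold curves, were pre-incubated 30 min at room temperature with 10 nM GCase plus 100 nM saposin C in PS/triton micelles, pH 4.7. Reaction with substrate (2 mM in micelles before mixing) ran 15 min; stopped at pH 12.5, read at ex 365/em 440 nm.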

[2] = Compound solubility in water; assay type: physicochemical; conditions: in water

COc1cccc(-c2cc(C)n3cnc(C(=O)N[C@H](C)C4CC4)c3n2)c1 [IV-1]
activation at 0.1 µM [1]: 10 to 20% | activation at 1 µM [1]: > 60% | solubility [2]: 8.3 µg/mL (≈ 23.7 µM)

CCCCO[C@H]1C[C@H]2CC[C@@H](C1)[C@H]2NC(=O)c1ncn2c(COC)cc(C)nc12 [IV-2]
activation at 0.1 µM [1]: > 20% | activation at 1 µM [1]: > 60% | solubility [2]: 27.5 µg/mL (≈ 68.7 µM)

CCCCO[C@H]1C[C@H]2CC[C@@H](C1)[C@@H]2NC(=O)c1ncn2c(COC)cc(C)nc12 [IV-3]
activation at 0.1 µM [1]: < 10% | activation at 1 µM [1]: 30 to 60% | solubility [2]: 15.3 µg/mL (≈ 38.2 µM)

CCCCO[C@H]1C[C@H]2CC[C@@H](C1)[C@H]2NC(=O)c1ncn2c(C)cc(COC)nc12 [IV-4]
activation at 0.1 µM [1]: > 20% | activation at 1 µM [1]: > 60% | solubility [2]: 16.4 µg/mL (≈ 40.9 µM)

CCCCO[C@H]1C[C@H]2CC[C@@H](C1)[C@@H]2NC(=O)c1ncn2c(C)cc(COC)nc12 [IV-5]
activation at 0.1 µM [1]: < 10% | activation at 1 µM [1]: > 60% | solubility [2]: 24.3 µg/mL (≈ 60.7 µM)

Cc1cc(NC(=O)c2ccccc2)nc2c(C(=O)NC(C3CC3)C(F)(F)F)ncn12 (stereo not drawn) [IV-6]
activation at 0.1 µM [1]: < 10% | activation at 1 µM [1]: 30 to 60% | solubility [2]: 15.1 µg/mL (≈ 36.2 µM)

Cc1cc(-c2ccns2)nc2c(C(=O)N[C@H](C3CC3)C(F)(F)F)ncn12 [IV-7]
activation at 0.1 µM [1]: 10 to 20% | activation at 1 µM [1]: > 60% | solubility [2]: 9.9 µg/mL (≈ 26 µM)

Cc1cc(-c2ccns2)nc2c(C(=O)N[C@@H](C3CC3)C(F)(F)F)ncn12 [IV-8]
activation at 0.1 µM [1]: 10 to 20% | activation at 1 µM [1]: > 60% | solubility [2]: 19.7 µg/mL (≈ 51.7 µM)

Cc1cc(-c2ccon2)nc2c(C(=O)NC(C3CC3)C(F)(F)F)ncn12 (stereo not drawn) [IV-9]
activation at 0.1 µM [1]: < 10% | activation at 1 µM [1]: 30 to 60% | solubility [2]: 3.9 µg/mL (≈ 10.7 µM)

Cc1cc(C)n2cnc(C(=O)N[C@H]3[C@@H]4CC[C@H]3C[C@@H](OC(C)(C)C)C4)c2n1 [IV-10]
activation at 0.1 µM [1]: > 20% | activation at 1 µM [1]: > 60% | solubility [2]: 1 µg/mL (≈ 2.7 µM)

Cc1cc(C)n2cnc(C(=O)N[C@@H]3[C@@H]4CC[C@H]3C[C@@H](OC(C)(C)C)C4)c2n1 [IV-11]
activation at 0.1 µM [1]: > 20% | activation at 1 µM [1]: > 60% | solubility [2]: 4.9 µg/mL (≈ 13.2 µM)

COc1cccc(-c2cc(C)n3cnc(C(=O)N[C@H](C4CC4)C(F)(F)F)c3n2)n1 [IV-13]
activation at 0.1 µM [1]: > 20% | activation at 1 µM [1]: > 60% | solubility [2]: 1.9 µg/mL (≈ 4.69 µM)

COc1cccc(-c2cc(C)n3cnc(C(=O)N[C@@H](C4CC4)C(F)(F)F)c3n2)n1 [IV-14]
activation at 0.1 µM [1]: > 20% | activation at 1 µM [1]: > 60% | solubility [2]: 3.2 µg/mL (≈ 7.89 µM)

Cc1cc(-c2cccc(OC3CC3)n2)nc2c(C(=O)NC(C3CC3)C(F)(F)F)ncn12 (stereo not drawn) [IV-15]
activation at 0.1 µM [1]: 10 to 20% | activation at 1 µM [1]: > 60% | solubility [2]: 2.1 µg/mL (≈ 4.87 µM)

CCc1cc(N2CCN(C(C)C)C2=O)nc2c(C(=O)NC(C3CC3)C(F)(F)F)ncn12 (stereo not drawn) [IV-16]
activation at 0.1 µM [1]: 10 to 20% | activation at 1 µM [1]: > 60% | solubility [2]: 24.6 µg/mL (≈ 56.1 µM)

Cc1cc(-c2cccc3ncoc23)nc2c(C(=O)N[C@H](C3CC3)C(F)(F)F)ncn12 [IV-17]
activation at 0.1 µM [1]: > 20% | activation at 1 µM [1]: > 60% | solubility [2]: 1.1 µg/mL (≈ 2.65 µM)

Cc1cc(-c2cccc3ncoc23)nc2c(C(=O)N[C@@H](C3CC3)C(F)(F)F)ncn12 [IV-18]
activation at 0.1 µM [1]: > 20% | activation at 1 µM [1]: > 60% | solubility [2]: 0.4 µg/mL (≈ 0.963 µM)

Cc1cc(-c2cccc(F)c2)nc2c(C(=O)N[C@H](C3CC3)C(F)(F)F)ncn12 [IV-19]
activation at 0.1 µM [1]: > 20% | activation at 1 µM [1]: > 60% | solubility [2]: 0.7 µg/mL (≈ 1.78 µM)

Cc1cc(-c2cccc(F)c2)nc2c(C(=O)N[C@@H](C3CC3)C(F)(F)F)ncn12 [IV-20]
activation at 0.1 µM [1]: > 20% | activation at 1 µM [1]: > 60% | solubility [2]: 0.7 µg/mL (≈ 1.78 µM)

COc1cccc(-c2cc(C)n3cnc(C(=O)N[C@H](C)C(F)(F)F)c3n2)c1 [IV-21]
activation at 0.1 µM [1]: 10 to 20% | activation at 1 µM [1]: > 60% | solubility [2]: 2.7 µg/mL (≈ 7.14 µM)

COc1cccc(-c2cc(C)n3cnc(C(=O)N[C@@H](C)C(F)(F)F)c3n2)c1 [IV-22]
activation at 0.1 µM [1]: > 20% | activation at 1 µM [1]: > 60% | solubility [2]: 1.7 µg/mL (≈ 4.49 µM)

C#CC(NC(=O)c1ncn2c(C)cc(-c3ccccc3C#N)nc12)C(F)(F)F (stereo not drawn) [IV-23]
activation at 0.1 µM [1]: 10 to 20% | activation at 1 µM [1]: > 60% | solubility [2]: 0.6 µg/mL (≈ 1.57 µM)

C#CC(C)(C)NC(=O)c1ncn2c(C)cc(-c3cccc4nccn34)nc12 [IV-24]
activation at 0.1 µM [1]: < 10% | activation at 1 µM [1]: < 30% | solubility [2]: 2.5 µg/mL (≈ 6.98 µM)

Cc1cc(-c2cccc3nccn23)nc2c(C(=O)NC(C3CC3)C(F)(F)F)ncn12 (stereo not drawn) [IV-25]
activation at 0.1 µM [1]: < 10% | activation at 1 µM [1]: < 30% | solubility [2]: 3.3 µg/mL (≈ 7.96 µM)

— patent publication US9920061B2, “Imidazo[1,5-A]pyrimidinyl carboxamide compounds and their use in the treatment of medical disorders” (Lysosomal Therapeutics Inc., priority 2016, dated 2018)
